Laboratory results from US8338565B2, “Macrocyclic compounds for inhibition of tumor necrosis factor alpha” (Ensemble Therapeutics Corporation, priority 2008, dated 2012).
Where two headings read alike, the source gives them in different places. Numbered stars: 1 amine (or outer) side, 2 acyl side, 3 side chain; on linkers, the order of the positions; unused ones are H or OH. Bridge positions count the residues as written; N and C are the ends. Square brackets hold non-standard residues; d marks the D form. Peptide text beside a SMILES is read from it. Phe(4-CF3) = N[C@@H](Cc1ccc(C(F)(F)F)cc1)C(=O)O; dPhe(4-NH2) = Nc1ccc(C[C@@H](N)C(=O)O)cc1; d(hPhe) = N[C@H](CCc1ccccc1)C(=O)O; Suc = O=C(CCC(=O)[*:2])[*:1]

Tests used:
[1] = target: T1, TNFα / TNFα receptor (TNFα R1/Fc) (Homo sapiens, UniProt P01375); assay: Inhibition of binding of TNFα to the TNFα receptor (plate ELISA competition); conditions: Table 2
T1 construct: purchased R&D Systems
T1 sequence (P01375 77-233 limits assumed, species assumed): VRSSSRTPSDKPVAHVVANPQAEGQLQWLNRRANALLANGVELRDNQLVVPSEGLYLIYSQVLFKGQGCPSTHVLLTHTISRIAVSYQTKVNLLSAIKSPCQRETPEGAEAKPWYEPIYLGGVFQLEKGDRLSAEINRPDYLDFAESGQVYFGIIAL
Summary of the method: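 Compound dilutions were preincubated 30 min at RT with 8.33 nM TNFα R1/Fc in PBST with 2% DMSO, then added to wells coated with 15 nM TNFα for 30 min. Bound receptor was detected with HRP anti-human Fc and TMB, read as A450.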

[2] = test system: TNF-α (degradation of IkB in HeLa cells or A431 cells); assay: Human cell-based assay: inhibition of TNF-α induced degradation of IkB; conditions: for inhibition at 5 µM: read-out: Inhibition at Various Compound Concentrations, 5 μM; for inhibition at 10 µM: read-out: Inhibition at Various Compound Concentrations, 10 μM
[3] = test system: rat paw edema model; assay: Rat paw edema model (carrageenan), anti-inflammatory activity; type: in vivo, Sprague-Dawley (SD) rats; conditions: Table 3
Procedure: Compounds 3, 4, 10 and 202 were tested in a rat paw edema model to determine anti-inflammatory activity. Seven groups (one for Vehicle A [15 mL PEG400, 3 mL Graves Grain alcohol (190 proof), 1.8 mL dimethylacetamide and 10.2 mL deionized water] alone as a negative control, one for Vehicle B [0.1M NaHCO3] alone as a negative control, one for each of the four test compounds dissolved in Vehicle A, and one for indomethacin dissolved in Vehicle B as a positive control), each group containing six Sprague-Dawley (SD) rats (180-200 g) randomized by weight. Initial paw volumes were measured by placing the right hind limb of the rat up to the top of the hock in a beaker of water sitting on a scale that had been tared to zero and recording the readout.
Rats were pre-treated with either i) one of the test compounds, or ii) a positive or negative control. Vehicle A alone and test compound dissolved in Vehicle A (Compound 3-1.0 mg/kg; Compound 4-0.4 mg/kg; Compound 10-0.5 mg/kg; Compound 202-0.3 mg/kg) were administered by intravenous injection. Vehicle B alone and indomethacin (5 mg/kg in 0.1M NaHCO3) was administered by intraperitoneal injection. Thirty minutes after this pretreatment, rats were anesthetized and injected with 0.1 mL of carrageenan (10 mg/mL in water) in the subplantar region of the right hind foot using a ½ inch 26 gauge needle attached to a 1 cc syringe.
At 2, 4 and 6 hours post-carrageenan injection, the right hind foot of each rat was measured for paw volume as described above.
We next investigated the effect of varying intravenous doses of Compound 202 (0.05, 0.10, 0.30, and 1.00 mg/kg) in the same model using the same protocol (6 rats per group). […] We also investigated the affect of oral dosing (10 mg/kg) of Compound 202 in the same model. For oral dosing, a 2.5 mg/mL suspension of Compound 202 was prepared in Vehicle A. Rats were orally administered 4 mL/kg of that suspension.

[4] = read-out: Activity (IC50, inhibition of TNFα binding to TNFα R1/Fc)
[5] = 5 μM compound, HeLa or A431 cells
[6] = 10 μM compound, HeLa or A431 cells

Row | IC50 [1, 4] | Structure (SMILES) | inhibition at 5 µM [2, 5] | inhibition at 10 µM [2, 6] | other results
1 | 10 to 30 µM | O=C1CCC(=O)N[C@H](CCc2ccccc2)C(=O)N[C@@H](Cc2ccc(C(F)(F)F)cc2)C(=O)N[C@H](Cc2ccccc2)C(=O)N[C@@H](C(=O)O)Cc2ccc(cc2)N1 [Compound 3] ([d(hPhe)][Phe(4-CF3)][dF][dPhe(4-NH2)]-OH; linker N-4 via Suc) | < 10% | < 10% | Change in Paw Volume ([3]; 1.0 mg/kg IV, 2 h post-carrageenan): 0.69 ± 0.14 mL; Change in Paw Volume ([3]; 1.0 mg/kg IV, 4 h post-carrageenan): 1.16 ± 0.32 mL; Change in Paw Volume ([3]; 1.0 mg/kg IV, 6 h post-carrageenan): 1.22 ± 0.31 mL
2 | 10 to 30 µM | O=C(O)[C@@H]1Cc2ccc(cc2)NC(=O)[C@H](O)[C@@H](O)C(=O)N[C@H](Cc2cccs2)C(=O)N[C@@H](Cc2ccc(-c3ccccc3)cc2)C(=O)N[C@H](Cc2ccccc2)C(=O)N1 [Compound 4] |  | < 10% | Change in Paw Volume ([3]; 0.4 mg/kg IV, 2 h post-carrageenan): 0.72 ± 0.13 mL; Change in Paw Volume ([3]; 0.4 mg/kg IV, 4 h post-carrageenan): 1.16 ± 0.16 mL; Change in Paw Volume ([3]; 0.4 mg/kg IV, 6 h post-carrageenan): 1.16 ± 0.25 mL
3 | < 10 µM | NCCCC(=O)N[C@@H]1CC(=O)N[C@H](Cc2cccs2)C(=O)N[C@@H](Cc2ccc(-c3ccccc3)cc2)C(=O)N[C@H](Cc2ccccc2)C(=O)N[C@H](C(=O)O)Cc2ccc(cc2)NC1=O [Compound 382] | 10 to 50% | < 10% | 
4 | < 10 µM | C[C@@H](NC(=O)[C@@H]1Cc2ccc(cc2)OCC(=O)N[C@@H](Cc2cccs2)C(=O)N[C@H](Cc2ccc(-c3ccccc3)cc2)C(=O)N[C@@H](Cc2ccccc2)C(=O)N1)C(=O)O [Compound 384] | < 10% | < 10% | 
5 | < 10 µM | C[C@H](NC(=O)[C@@H]1Cc2ccc(cc2)OCC(=O)N[C@@H](Cc2cccs2)C(=O)N[C@H](Cc2ccc(-c3ccccc3)cc2)C(=O)N[C@@H](Cc2ccccc2)C(=O)N1)C(=O)O [Compound 385] | 50 to 80% | > 80% | 
6 | < 10 µM | O=C(O)CCCNC(=O)[C@@H]1Cc2ccc(cc2)OCC(=O)N[C@@H](Cc2cccs2)C(=O)N[C@H](Cc2ccc(-c3ccccc3)cc2)C(=O)N[C@@H](Cc2ccccc2)C(=O)N1 [Compound 386] | < 10% | < 10% | 
7 | < 10 µM | COC(=O)[C@H](CC(=O)O)NC(=O)[C@@H]1Cc2ccc(cc2)OCC(=O)N[C@@H](Cc2cccs2)C(=O)N[C@H](Cc2ccc(-c3ccccc3)cc2)C(=O)N[C@@H](Cc2ccccc2)C(=O)N1 [Compound 388] | < 10% | 10 to 50% | 
8 |  | O=C1COc2ccc(cc2)C[C@@H](C(=O)NCCO)NC(=O)[C@H](Cc2ccccc2)NC(=O)[C@@H](Cc2ccc(-c3ccccc3)cc2)NC(=O)[C@H](Cc2cccs2)N1 [Compound 390] |  |  | IC50 ([1]; Activity (IC50, inhibition of TNFα binding to TNFα R1/Fc)): < 10 µM; inhibition at 5 µM [2]: < 10%; inhibition at 10 µM [2]: 50 to 80%
